Test results published in patent US20100324079A1, “Medicament for prophylaxis and treatment of Alzheimer disease” (priority 2006, published 2010).
Entries after “also recorded” stand apart in the source; their conditions may differ. Counter-ions that a name gives are not always drawn. Peptide text beside a SMILES is read from it. * marks the point of attachment. Cbz = O=C(OCc1ccccc1)*

How the values were obtained:
[1] = tested on: intracellularly accumulated Aβ40; test: Degradation of intracellularly accumulated Aβ40 in SH-SY5Y cells (immunoblot, confocal microscopy); assay type: cell-based; conditions: for degradation of intracellularly accumulated Aβ40 after 30 minutes: reagent added 2 hours before Aβ40 accumulation, immunoblot with 4G8
From the text: (§1) In order to investigate a compound that inhibits intracellular aggregation and accumulation of amyloid β proteins based on activation of intracellular proteasome, a system was constructed for assaying an activity to degrade intracellularly accumulated Aβ. Neuroblastoma cells (SH-SY5Y; ATCC) were used as culture cells and Aβ40 was artificially accumulated within the cells. […] If the activity to degrade Aβ40 was high, the activity to degrade Aβ42 was analogously thought to be high. For introducing amyloid β proteins within cells, hypertonicity influx method was used. Briefly, using Influx™ Pinocytic Cell-loading Reagent (Molecular Probe), SH-SY5Y cells (1×10^6 cells) were exposed to Aβ40 (about 200 μg; ANASPEC) with hypertonicity for 10 minutes/hypotonicity for 2 minutes so that Aβ40 peptides may be incorporated into cells via pinocytosis and spread pervasively in cytoplasm. After accumulation of Aβ40 within cells, degradation of Aβ with lapse of time was observed. […] These reagents were added to culture two hours before Aβ40 accumulation to investigate their activity.
(§2) Zero minute and thirty minutes after Aβ40 treatment, cells were collected and subjected to immunoblot. Immunoblot was performed as commonly known in the art wherein soluble proteins were extracted from cells with 2% SDS, run on Tris/Tricine gel SDS-PAGE, transblotted to PVDF membrane (Semi-dry method) and detected with an anti-Aβ antibody (4G8, Signet Pathology Systems). Quantitative evaluation was done by quantitatively evaluating the immune reaction of amyloid β proteins. Quantitative evaluation was performed by taking in the photos with Photoshop and measuring density of bands with NIH Image. […] Thus, it was considered that intracellularly accumulated Aβ40 were degraded by proteasome and that APO may enhance the degrading process.
Aβ40 was incorporated into cells via pinocytosis as in (1) above.

[2] = tested on: SH-SY5Y cells; test: Cell death induced by hydrogen peroxide in SH-SY5Y cells (cell survival); assay type: cell-based; conditions: for rate of cell survival: hydrogen peroxide
Description: A cell death inhibitory activity of apomorphine hydrochloride to cell death induced by hydrogen peroxide was studied. Hydrogen peroxide treatment was performed by adding an appropriate amount (0 mM, 1 mM, and 3 mM) of hydrogen peroxide to normal culture medium for SH-SY5Y cells supplemented with 10% serum and by investigating cell survival after 24 hours. The cells were fixed with methanol/acetone (50%/50%) for 10 minutes so that the conditions of surviving cells could easily be observed and then subjected to immunostaining with an anti-APP C-terminal antibody (Sigma-Aldrich) using Universal Kit (DAKO). As a result, cell death was induced by hydrogen peroxide (FIG. 3, upper panels). Then, the cells were treated with 10 μM APO together with 0 mM, 1 mM, and 3 mM of hydrogen peroxide.
(§3) Further, in order to study p53 level and a rate of cell survival in cell damage induced by hydrogen peroxide, p53 Western blot analysis and survival rate assay using Cell Titer-Blue Assay Kit (Promega) were performed. Hydrogen peroxide treatment was done by adding an appropriate amount (0 mM, 1 mM, and 3 mM) of hydrogen peroxide to normal culture medium for SH-SY5Y cells supplemented with 10% serum as described above. After 24 hours, the increased p53 level by addition of hydrogen peroxide was inhibited by addition of APO (FIG. 4A). A rate of cell survival was also recovered by addition of APO.

[3] = tested on: p53; test: p53 Western blot analysis in hydrogen peroxide treated SH-SY5Y cells; assay type: cell-based; conditions: 0, 1, 3 mM hydrogen peroxide, after 24 hours
Description: as §3

[4] = tested on: intracellularly accumulated Aβ42; test: Degradation of intracellularly accumulated Aβ42 in SH-SY5Y cells (immunoblot); assay type: cell-based
From the text: as §1, §2
As described in Example 1(1) and (2), degradation of intracellularly accumulated Aβ was assayed for Aβ42 provided that cells were collected 0 minute and 90 minutes after Aβ42 treatment and subjected to immunoblot.

[5] = tested on: proteasome; test: Proteasome activity in SH-SY5Y cells (20S Proteasome Assay Kit, Suc-LLVY-AMC); assay type: cell-based
Description: As described in Example 2(1) and (2), a change in the protease activity in SH-SY5Y cells by addition of APO was studied. Measurement of the protease activity was conducted by calculating a relative specific activity by measuring fluorescence generated from degradation of a specific substrate (Suc-LLVY-AMC) using 20S Proteasome Assay Kit (BostonBiochem). Comparison between two groups was done by Student t-test.

[6] = tested on: primary neurons from mouse fetus; test: Protective effect in mouse primary neurons (cell survival, beta-tubulin immunostaining); assay type: cell-based
Description: Primary neurons were taken from the brain of fetal mouse of 15 days old, separated by treatment with 0.03% trypsin and cultured in Neurobasal-A+B27 serum-free medium (Gibco). After stabilization by culture for about a week, the reagents were added and a rate of cell survival was measured.
Further, the above mouse primary neurons were immunostained with an antibody to beta-tubulin, a cytoskeletal protein of the axon and a network of the neurite was observed (FIG. 8).

[7] = tested on: 3×Tg mouse; test: Morris water maze test in heterozygous 3×Tg mice; assay type: in vivo
Description: 3×Tg mouse is a model mouse of Alzheimer disease (AD) developed by Oddo and LaFerla et al. at University of California, Irvine. It is a mouse having three potent causes of disease wherein a gene of an amyloid precursor protein (APP) with KM670/671NL mutation, which is a gene causative of Swedish familial AD, and a gene of a tau protein (Tau) with P301L mutation, which is one of genes causative of familial frontotemporal dementia (FTD), are incorporated into a knock-in mouse of presenilin-1 (PS1) gene with M146V mutation causative of familial AD. […] It is also reported that the memory function of 3×Tg mouse is recovered when amyloid β proteins accumulated within neurons are decreased but defects in memory relapse if amyloid β proteins become accumulated (Billings L M et al., Neuron 45: 675-688, 2005). Thus, 3×Tg mouse is a model mouse of disease highly suitable for investigating efficacy of a medicament which targets intracellularly accumulated amyloid β proteins.
For investigating efficacy of apomorphine (APO) hydrochloride administered in vivo, APO was subcutaneously injected to 3×Tg. APO was purchased from Sigma Co. To heterozygous 3×Tg (6 month old; 4 mice in each group) generated from crossbreeding of a normal mouse and a Tg mouse, each 5 mg/kg of saline or APO was subcutaneously injected weekly for 4 weeks. The animals underwent analysis by Morris water maze test to evaluate the capacity of space memory before injection and after completion of four injections.
For quantitatively evaluating the capacity of space memory relating to the memory function of the hippocampus, Morris water maze test was performed. An analytical instrument used was DV-Track Video Tracking System (Muromachi Kikai Co., Ltd.). For Morris water maze, a round-shaped pool with a diameter of 1 m is prepared and a transparent goal stand is set in an arbitrary position of the pool. The animals undergo swimming training repeatedly by starting at an arbitrary position for reaching the goal stand (FIG. 9, left panel). In case that the animals could not reach the goal stand within 60 seconds, the test is discontinued and the animals are put on the goal stand for them to memorize the position. This training is repeated four times a day for three consecutive days and as a consequence the animals come to memorize the position of the goal stand (FIG. 9, right panel). Forty eight hours after completion of learning with time for reaching the goal stand being 15 seconds or less, the animals were let to swim in the pool without the goal stand and three indexes for memory were: time lag (s) in reaching the position where the goal stand was originally placed, a frequency (n) of crossing the position as seeking for the goal stand, and residential time (%) within ¼ block of the position where the goal stand was originally placed (48-hour probe test).

[8] = tested on: 3×Tg mouse; test: Immunostaining of brain slices of 3×Tg mice (4G8, AT8); assay type: in vivo
From the text: In 3×Tg mouse, it is observed that defects in the recognition function and intracellularly accumulated amyloid β proteins are correlated to each other. For evaluating amyloid β proteins accumulated within neurons, 3×Tg mice used in Example 6 were sacrificed for pathological analysis. Immunostaining was done with an antibody specific to an amyloid β protein and an antibody specific to a phosphorylated tau protein, which is a major component of neurofibrillary tangle in the AD brain. After completion of Morris water maze test after APO injection, the mice were subjected to perfusion fixation with 4% paraformaldehyde. Then, the whole brain was taken out, fixed with 4% paraformaldehyde and was left to stand in 15% sucrose for 48 hours and in 30% sucrose for 48 hours at 4° C. A slice with 20 μm thickness cut from the forehead including the hippocampus was prepared. Immunostaining was performed with 4G8 (Signet Laboratories, 1:1000) for an anti-amyloid β protein antibody and AT8 (Innogenetics, 1:200) for an anti-phosphorylated tau protein antibody using mouse to mouse immunostaining kit (Zymed) for DAB staining.

[9] = tested on: 3×Tg mouse; test: Preventive effect to onset of AD, Morris water maze test in homozygous 3×Tg mice; assay type: in vivo; conditions: weekly 5 mg/kg from 3 months old up till 6 months old, hydrochloride
Description: For investigating whether APO administration may prevent onset of AD, the effect of weekly administration of 5 mg/kg of APO before onset was studied. The recognition function and the pathological change in 3×Tg mice may widely vary from individual to individual and thus still much more data would be necessary for obtaining a definite conclusion.

For CN1CCc2cccc3c2[C@H]1Cc1ccc(O)c(O)c1-3 [APO, apomorphine hydrochloride], the “change in intracellular Aβ40 with lapse of time” value ([1]; 10 μM APO added two hours before) was “degraded with lapse of time”, the “degradation of intracellularly accumulated Aβ40 after 30 minutes” value [1] was “degradation after 30 minutes was enhanced” and the “degradation of intracellularly accumulated Aβ40 inhibited by MG132, effect of adding APO” value ([1]; with MG132, 30 minutes, immunoblot) was “the degradation was recovered”. The “cell survival (number of surviving cells and morphological features)” value ([2]; 10 μM APO with 0, 1, 3 mM hydrogen peroxide, 24 hours, immunostaining) was “evident enhancement of cell survival”, the “rate of cell survival” value ([2]; 10 μM APO, Cell Titer-Blue, p<0.0001) was “extremely improved” and the “rate of cell survival” value ([2]; 24 hours, Cell Titer-Blue Assay Kit) was “recovered”. For the same molecule, the “p53 level increased by hydrogen peroxide” value [3] was “inhibited”, the “degradation of intracellularly accumulated Aβ42 after 90 minutes” value [4] was “degradation after 90 minutes was enhanced” and the “proteasome activity (relative specific activity)” value ([5]; APO alone, hydrochloride) was “enhanced the proteasome activity; also recorded: increased”. For the same molecule, the “decreased proteasome activity at addition of oxidative stress” value ([5]; oxidative stress plus APO) was “recovered”, the “network of the neurite (beta-tubulin immunostaining)” value ([6]; mouse primary neurons) was “protection and maintenance of the network” and the “apoptosis inhibitory activity for oxidative stress (rate of cell survival)” value ([6]; primary neurons from fetal mouse of 15 days old) was “also seen in primary neurons from mouse fetus”. The “concentration at which the effect of APO was at the peak” value ([6]; primary neurons from mouse fetus, rate of cell survival, thereafter declined) was 10 µM, the “capacity of memory for the goal stand position (loci of swimming), 48-hour probe test” value ([7]; 3×Tg cases (2 mice) in which APO injection was efficacious, hydrochloride) was “the memory retention of the goal stand position was improved; also recorded: markedly improved” and the “capacity of learning after 3-day consecutive training (time for reaching the goal stand)” value ([7]; heterozygous 3×Tg, 6 month old, 5 mg/kg subcutaneous weekly for 4 weeks, n=4, hydrochloride, 5 mg/kg) was “a tendency of improvement in the capacity of memory and learning; also recorded: slightly higher capacity of learning after treatment”. The “frequency of crossing the goal stand, 48-hour probe test” value ([7]; heterozygous 3×Tg, 5 mg/kg s.c. weekly for 4 weeks, after vs before injection, p=0.03) was “increase in frequency of crossing the goal stand”, the “residential time (%) within ¼ block of the goal stand, 48-hour probe test” value ([7]; heterozygous 3×Tg, 5 mg/kg s.c. weekly for 4 weeks, after vs before injection, p=0.04) was “increase in residential time” and the “time lag in reaching the goal stand, 48-hour probe test” value ([7]; heterozygous 3×Tg, 5 mg/kg s.c. weekly for 4 weeks, after vs before injection, p=0.05) was “shortening of time lag in reaching the goal stand”. The “fall-off of massive neurons” value ([8]; 3×Tg mice at the stage of 6-month, after administration) was “not observed”, the “intraneuronal accumulation of amyloid β proteins (4G8 immunostaining)” value ([8]; cerebral cortex and hippocampus CA1 region, 3×Tg mice of Example 6, vs saline, hydrochloride) was “evidently inhibited” and the “intraneuronal accumulation of phosphorylated tau proteins (AT8 immunostaining)” value ([8]; cerebral cortex and hippocampus, 3×Tg mice of Example 6, vs saline, hydrochloride) was “the accumulation was inhibited”. For the same molecule, the “capacity of memory acquisition in swimming training (time lag in reaching the goal stand)” value [9] was “comparable to Non-Tg mice; also recorded: evidently superior to that of 3×Tg mice with no treatment; also recorded: comparable to non-transgenic mice”.

In the case of CC(C)C[C@@H](C=O)NC(=O)[C@H](CC(C)C)NC(=O)[C@H](CC(C)C)NC(=O)OCc1ccccc1 [MG132] (Cbz-Leu-Leu-Leu-aldehyde), the “degradation of intracellularly accumulated Aβ40 after 30 minutes” value [1] is reported as “degradation was inhibited” and the “degradation of intracellularly accumulated Aβ42 after 90 minutes” value [4] is reported as “degradation was inhibited”.

“Aβ42: amyloid β protein of 42 residues; printed in b62 as the added agent, probably a misprint for APO” was tested, and the “degradation of intracellularly accumulated Aβ42 inhibited by MG132, recovery” value ([4]; with MG132, 90 minutes) was “the degradation was recovered”.
